Data: patent US10406218B2 (priority 2014, dated 2019)
Read-outs that look alike come from different tables or passages of the source.

Tested on: PBMC from 30 HC individuals
Test: ex vivo IFNγ ELISPOT with NTM-specific peptides
Format: cell-based, human
[1] = response frequency among HC donors, NTM-specific peptides (Table 2)
[2] = total spot forming cells, IFNγ ELISPOT, NTM-specific peptides (Table 2)

| Substance | Resp Freq [1] [%] | Total SFC [2] [SFC] | Resp Freq [%] | Total SFC [SFC] |
| --- | --- | --- | --- | --- |
| 47 (VEFFRAVPVLIMMIF) [Peptide 47] | 3 | 40 |  |  |
| 1334 (FFDAGLVVFLPIIMT) [Peptide 1334] | 3 | 47 |  |  |
| 397 (ALMNQFISLLKASSL) [Peptide 397] | 3 | 40 |  |  |
| 937 (HLMQSVVMVSFPVEV) [Peptide 937] | 3 | 22 |  |  |
| 1132 (FLFTMLQKTLKGNIF) [Peptide 1132] | 3 | 35 |  |  |
| 1077 (GFVTEFLQREVQNFL) [Peptide 1077] | 3 | 22 |  |  |
| 861 (MVFATLLPLGVLQLY) [Peptide 861] | 3 | 47 |  |  |
| YNVVIYPVTTLRLAM [Peptide 1556] | 3 | 122 | 3 | 122 |
| 257 (FFHIYGMTVLLNAAL) [Peptide 257] | 3 | 35 |  |  |
| 760 (AEWVVRTILSLLTVR) [Peptide 760] | 3 | 38 |  |  |
| SLHMFFHRLGPVLAR [Peptide 329] | 7 | 167 | 7 | 167 |
| 1452 (TTPHFLVEGAIIAAY) [Peptide 1452] | 3 | 43 |  |  |
| 1525 (FFHRGLMLMSFDEHL) [Peptide 1525] | 3 | 25 |  |  |
| 1549 (RILQVFTEAYADVER) [Peptide 1549] | 3 | 48 |  |  |
| ETTRNLIALGTLALI [Peptide 829] | 3 | 93 | 3 | 93 |
| HEEIQLLANDFSTML [Peptide 446] | 3 | 182 | 3 | 182 |
| 691 (LANPGIVSIPLAFIL) [Peptide 691] | 3 | 23 |  |  |
| PKLKQFMSDVVWIEH [Peptide 775] | 7 | 70 | 7 | 70 |
| 898 (GQRVITLLASANRDE) [Peptide 898] | 3 | 23 |  |  |
| 323 (MIEMLAMSDLSLMVK) [Peptide 323] | 3 | 38 |  |  |
| 1001 (KGGLRFHPSVYLGIV) [Peptide 1001] | 3 | 37 |  |  |

| Substance | Resp Freq [1] [%] | Total SFC [2] [SFC] | Resp Freq [%] | Total SFC [SFC] |
| --- | --- | --- | --- | --- |
| 714 (AFTHFALLANVAEDI) [Peptide 714] | 3 | 35 |  |  |
| LMLIWACDLIVAADN [Peptide 1224] | 10 | 97 | 10 | 97 |
| 106 (GLSSAWLSLIFAEMI) [Peptide 106] | 3 | 55 |  |  |
| ALLYIPLLTRMLMNL [Peptide 777] | 7 | 87 | 7 | 87 |
| 175 (LDYFLNLMLRAPFRL) [Peptide 175] | 3 | 32 |  |  |
| KWETFLTQELPAYLA [Peptide 741] | 13 | 248 | 13 | 248 |
| 804 (NSSIVLISLPAIFRG) [Peptide 804] | 3 | 57 |  |  |
| 626 (ARAGFAASGVLHLLV) [Peptide 626] | 3 | 48 |  |  |
| 697 (RSLMFPTLASLIEER) [Peptide 697] | 3 | 25 |  |  |
| 713 (EGELHLFTPEVVFLL) [Peptide 713] | 3 | 30 |  |  |
| 645 (PASILILFAPGAPRE) [Peptide 645] | 3 | 23 |  |  |
| 1331 (VEAGMVYVTLPPLFV) [Peptide 1331] | 3 | 58 |  |  |
| 1204 (TPGLNLVYAHLNRII) [Peptide 1204] | 3 | 30 |  |  |
| 1244 (LIFDGVFDRFPTLRI) [Peptide 1244] | 3 | 35 |  |  |
| 281 (IVAHYILQYATEELR) [Peptide 281] | 3 | 25 |  |  |
| 405 (PLVYFIDSMLQVDDL) [Peptide 405] | 3 | 33 |  |  |
| 537 (VEPVDISNAVLFLAS) [Peptide 537] | 3 | 43 |  |  |
| 417 (GVVAAIIAYNYPNQL) [Peptide 417] | 3 | 28 |  |  |
| KDVFFYEPIILPEKS [Peptide 752] | 3 | 78 | 3 | 78 |
| 628 (LGVFPLIVMFLITSI) [Peptide 628] | 3 | 53 |  |  |
| 718 (LGPTAGLTVASALLV) [Peptide 718] | 3 | 28 |  |  |

| Substance | Resp Freq [1] [%] | Total SFC [2] [SFC] | Resp Freq [%] | Total SFC [SFC] |
| --- | --- | --- | --- | --- |
| 1393 (ANVRYISGAPQLWVV) [Peptide 1393] | 3 | 42 |  |  |
| 1529 (EGIVFALGGALDFSY) [Peptide 1529] | 3 | 23 |  |  |
| 732 (PLRVAFLIVLIGTTV) [Peptide 732] | 3 | 33 |  |  |
| 540 (VVYAFMSLFVVNVVV) [Peptide 540] | 3 | 25 |  |  |
| 1072 (HIELALYRIAQECLQ) [Peptide 1072] | 3 | 37 |  |  |
| 400 (MKELLAENLMVMMRD) [Peptide 400] | 3 | 32 |  |  |
| DPLIFFRPRVERLFG [Peptide 720] | 10 | 125 | 10 | 125 |
| GSMLWVAALIGEEIF [Peptide 587] | 7 | 68 | 7 | 68 |
| 945 (ALIHVLWINAGLSCD) [Peptide 945] | 3 | 23 |  |  |
| LMVLFQYGVALHELE [Peptide 7] | 3 | 138 | 3 | 138 |
| 1284 (NAVLFLASDEARYIT) [Peptide 1284] | 3 | 25 |  |  |
| 646 (ADAVNFGVAPAFIVY) [Peptide 646] | 3 | 37 |  |  |
| 447 (DDRRTLLWLANQRAV) [Peptide 447] | 3 | 53 |  |  |
| 672 (ASGTLLFKLTPWIVV) [Peptide 672] | 3 | 25 |  |  |
| 621 (AKVLGVFLVTEIVML) [Peptide 621] | 3 | 27 |  |  |
| 1285 (PADASIVKLYYSELL) [Peptide 1285] | 3 | 53 |  |  |
| 871 (LVYLVGFKTKVSTLL) [Peptide 871] | 3 | 28 |  |  |
| 1458 (HFVSTLSATFPEGED) [Peptide 1458] | 3 | 47 |  |  |
| RFTLLRPLLFTIAYE [Peptide 311] | 3 | 477 | 3 | 477 |
| 424 (AVPNFALTPLLIIWM) [Peptide 424] | 3 | 55 |  |  |
| 745 (VFALMGLRQLYFLLG) [Peptide 745] | 3 | 35 |  |  |

| Substance | Resp Freq [1] [%] | Total SFC [2] [SFC] | Resp Freq [%] | Total SFC [SFC] |
| --- | --- | --- | --- | --- |
| 439 (GMVFQSFNLFAHKTI) [Peptide 439] | 3 | 28 |  |  |
| 1075 (SPEQAYLLLGAAPIE) [Peptide 1075] | 3 | 22 |  |  |
| 953 (FEHSVVNMFLFPSGL) [Peptide 953] | 3 | 25 |  |  |
| 78 (IVGAALFLASDASSF) [Peptide 78] | 3 | 32 |  |  |
| 659 (GLLYVPQLATISATF) [Peptide 659] | 3 | 38 |  |  |
| 712 (VVLMIFRPQGLFPAR) [Peptide 712] | 3 | 27 |  |  |
| 1134 (TLLTMLWQNLIGNAV) [Peptide 1134] | 3 | 47 |  |  |
| 543 (VIMPWMIFYQQGAVV) [Peptide 543] | 3 | 43 |  |  |
| 963 (VLVVFLLPALRDGAP) [Peptide 963] | 3 | 25 |  |  |
| 1141 (HAEYKQVTVLFADVV) [Peptide 1141] | 3 | 38 |  |  |
| PLAENYLRLNALGAY [Peptide 1364] | 3 | 228 | 3 | 228 |
| 538 (VEVVSAEALQLPLWG) [Peptide 538] | 3 | 30 |  |  |
| 841 (PQFLIMPKLIPALIA) [Peptide 841] | 3 | 48 |  |  |
| 1542 (GRVAWNIVTSYLDSA) [Peptide 1542] | 3 | 52 |  |  |
| 421 (DPAFRQVFAAQFLPD) [Peptide 421] | 3 | 40 |  |  |
| 787 (DVDIDQLRSFLADKV) [Peptide 787] | 3 | 38 |  |  |
| 651 (FSWFAAGMVLAELTV) [Peptide 651] | 3 | 22 |  |  |
| HQGLAFLLADMAAAV [Peptide 8] | 3 | 58 | 3 | 58 |
| GRLIGWLAKVLAEHP [Peptide 1258] | 3 | 60 | 3 | 60 |
